From patent publication US11780841B2, “3,6-methano-1H-pyrrolo[3,2-b]pyridine and 3,6-methano-1H-pyrrolo[3,2-c]pyridine compounds and medicaments using same” (priority 2018, dated 2023)

Each compound was assayed on recombinant rabies virus 1088 strain expressing Gaussia Luciferase (GLuc) (1088/GLuc). Conditions: read-out: Anti-rabies activity.
Format: cell-based

| SMILES | IC50 |
| --- | --- |
| CC(C)CN1C[C@H]2C[C@]3(C(=O)NCCc4ccccc4)NC[C@H]2[C@H]1[C@H]3Cc1ccc(O)cc1 (relative stereo) [IF-567] | 10 to 30 µM |
| CC(C)CN1C[C@H]2C[C@]3(C(=O)NCc4cccc5ccccc45)NC[C@H]2[C@H]1[C@H]3Cc1ccc(O)cc1 (relative stereo) [IF-568] | < 5 µM |
| CCCCCCNC(=O)[C@@]12C[C@@H]3CN(CC(C)C)[C@@H]([C@@H]3CN1)[C@H]2CC(C)C (relative stereo) [IF-569] | 10 to 30 µM |
| CC(C)CN1C[C@H]2C[C@]3(C(=O)NCc4ccc(O)cc4)NC[C@H]2[C@H]1[C@H]3CCc1ccccc1 (relative stereo) [IF-576] | 10 to 30 µM |
| CC(C)C[C@@H]1[C@@H]2[C@@H]3CN[C@@]1(C(=O)NCc1cccc4ccccc14)C[C@@H]3CN2Cc1ccc(O)cc1 (relative stereo) [IF-578] | < 5 µM |
| CCCCCCNC(=O)[C@@]12C[C@@H]3CN(CCC(C)C)[C@@H]([C@@H]3CN1)[C@H]2Cc1ccc(O)cc1 (relative stereo) [IF-583] | < 5 µM |
| CC(C)CCNC(=O)[C@@]12C[C@@H]3CN(Cc4ccc(F)cc4)[C@@H]([C@@H]3CN1)[C@H]2Cc1ccccc1 (relative stereo) [IF-584] | < 5 µM |
| CC(C)CCNC(=O)[C@@]12C[C@@H]3CN(Cc4ccc(F)cc4)[C@@H]([C@@H]3CN1)[C@H]2CC(C)C (relative stereo) [IF-585] | < 5 µM |
| O=C(NCCc1ccccc1)[C@@]12C[C@@H]3CN(Cc4ccc(F)cc4)[C@@H]([C@@H]3CN1)[C@H]2Cc1ccccc1 (relative stereo) [IF-586] | 10 to 30 µM |
| CCCCCCNC(=O)[C@@]12C[C@@H]3CN(CCC(C)C)[C@@H]([C@@H]3CN1)[C@H]2Cc1ccccc1 (relative stereo) [IF-599] | 10 to 30 µM |
| CCCCCCNC(=O)[C@@]12C[C@@H]3CN(CCc4ccccc4)[C@@H]([C@@H]3CN1)[C@H]2Cc1ccccc1 (relative stereo) [IF-602] | 10 to 30 µM |
| CC(C)CNC(=O)[C@]12N=C[C@@H]3C[C@H]1CN(Cc1ccccc1)[C@H]2[C@@H]3CC(C)C (relative stereo) [IIB-4] | 5 to 10 µM |
| Cc1ccc(CNC(=O)[C@@]23C[C@@H]4CN(CC(C)C)[C@@H]([C@@H]4C=N2)[C@H]3Cc2ccccc2)cc1 (relative stereo) [IIF-16] | 10 to 30 µM |
| CC(C)CC[C@@H]1[C@H]2CN[C@@]3(C(=O)NCc4cccc5ccccc45)[C@@H](C2)CN(CC(N)=O)[C@@H]13 [IB-84] | 10 to 30 µM |
| CC(C)C[C@@H]1[C@H]2CN[C@@]3(C(=O)NCCc4ccccc4)[C@@H](C2)CN(CC(N)=O)[C@@H]13 [IB-86] | 10 to 30 µM |
| NC(=O)CN1C[C@@H]2C[C@@H]3CN[C@]2(C(=O)NCCc2ccccc2)[C@@H]1[C@@H]3Cc1ccccc1 [IB-87] | < 5 µM |
| CC(C)CC[C@@H]1[C@H]2CN[C@@]3(C(=O)NCCc4ccccc4)[C@@H](C2)CN(CC(N)=O)[C@@H]13 [IB-89] | < 5 µM |
| NC(=O)CN1C[C@@H]2C[C@@H]3CN[C@]2(C(=O)NCc2cccc4ccccc24)[C@@H]1[C@@H]3Cc1cccc2ccccc12 [IB-90] | < 5 µM |
| NC(=O)CN1C[C@@H]2C[C@@H]3CN[C@]2(C(=O)NCc2ccc(F)cc2)[C@@H]1[C@@H]3Cc1ccccc1 [IB-92] | 10 to 30 µM |
| NC(=O)CN1C[C@@H]2C[C@@H]3CN[C@]2(C(=O)NCc2ccc(F)cc2)[C@@H]1[C@@H]3CCc1ccccc1 [IB-95] | < 5 µM |
| NC(=O)CN1C[C@@H]2C[C@@H]3CN[C@]2(C(=O)NCc2ccc(F)cc2)[C@@H]1[C@@H]3Cc1cccc2ccccc12 [IB-96] | 10 to 30 µM |
| NC(=O)CN1C[C@@H]2C[C@@H]3CN[C@]2(C(=O)NCCc2ccccc2)[C@@H]1[C@@H]3Cc1cccc2ccccc12 [IB-97] | < 5 µM |
| CC(C)CCNC(=O)[C@]12NC[C@H]3C[C@H]1CN(CC(N)=O)[C@H]2[C@@H]3CCc1ccccc1 [IB-102] | < 5 µM |
| CC(C)CCNC(=O)[C@]12NC[C@H]3C[C@H]1CN(CC(N)=O)[C@H]2[C@@H]3Cc1cccc2ccccc12 [IB-103] | 10 to 30 µM |

| SMILES | IC50 |
| --- | --- |
| CCCCCCNC(=O)[C@]12NC[C@H]3C[C@H]1CN(CC(N)=O)[C@H]2[C@@H]3Cc1ccccc1 [IB-105] | 10 to 30 µM |
| CCCCCCNC(=O)[C@]12NC[C@H]3C[C@H]1CN(CC(N)=O)[C@H]2[C@@H]3CCC(C)C [IB-108] | 10 to 30 µM |
| CCCCCCNC(=O)[C@]12NC[C@H]3C[C@H]1CN(CC(N)=O)[C@H]2[C@@H]3CCc1ccccc1 [IB-109] | 10 to 30 µM |
| CCCCCCNC(=O)[C@]12NC[C@H]3C[C@H]1CN(CC(N)=O)[C@H]2[C@@H]3Cc1cccc2ccccc12 [IB-110] | < 5 µM |
| NC(=O)CN1C[C@@H]2C[C@@H]3CN[C@]2(C(=O)NCc2ccccc2)[C@@H]1[C@@H]3CCc1ccccc1 [IB-130] | 10 to 30 µM |
| CCCCCCNC(=O)[C@]12NC[C@H]3C[C@H]1CN(CCCNC(=N)N)[C@H]2[C@@H]3CCc1ccccc1 [IB-174] | 10 to 30 µM |
| CC(C)C[C@@H]1[C@H]2CN[C@@]3(C(=O)NC(C)C)[C@@H](C2)CN(CCCNC(=N)N)[C@@H]13 [IB-176] | 10 to 30 µM |
| CC(C)NC(=O)[C@]12NC[C@H]3C[C@H]1CN(CCCNC(=N)N)[C@H]2[C@@H]3CCc1ccccc1 [IB-179] | 10 to 30 µM |
| N=C(N)NCCCN1C[C@@H]2C[C@@H]3CN[C@]2(C(=O)NCc2ccc(F)cc2)[C@@H]1[C@@H]3Cc1ccccc1 [IB-182] | 10 to 30 µM |
| CC(C)CNC(=O)[C@]12NC[C@H]3C[C@H]1CN(CC(C)C)[C@H]2[C@@H]3CCCNC(=N)N [IB-187] | 10 to 30 µM |
| CC(C)CCNC(=O)[C@]12NC[C@H]3C[C@H]1CN(CC(C)C)[C@H]2[C@@H]3CCCNC(=N)N [IB-192] | < 5 µM |
| CC(C)CNC(=O)[C@]12NC[C@H]3C[C@H]1CN(Cc1ccccc1)[C@H]2[C@@H]3CCCNC(=N)N [IB-198] | 10 to 30 µM |
| CC(C)CNC(=O)[C@]12NC[C@H]3C[C@H]1CN(Cc1ccc(O)cc1)[C@H]2[C@@H]3CCCNC(=N)N [IB-203] | 10 to 30 µM |
| N=C(N)NCCC[C@@H]1[C@H]2CN[C@@]3(C(=O)NCc4ccc(F)cc4)[C@@H](C2)CN(Cc2ccc(O)cc2)[C@@H]13 [IB-207] | 10 to 30 µM |
| N=C(N)NCCC[C@@H]1[C@H]2CN[C@@]3(C(=O)NCCc4ccccc4)[C@@H](C2)CN(Cc2ccccc2)[C@@H]13 [IB-247] | 10 to 30 µM |
| CCCCCCNC(=O)[C@]12NC[C@H]3C[C@H]1CN(Cc1ccccc1)[C@H]2[C@@H]3CCCNC(=N)N [IB-249] | 10 to 30 µM |
| N=C(N)NCCC[C@@H]1[C@H]2CN[C@@]3(C(=O)NCc4ccc(F)cc4)[C@@H](C2)CN(Cc2ccccc2)[C@@H]13 [IB-250] | 10 to 30 µM |
| CCCCCCNC(=O)[C@]12NC[C@H]3C[C@H]1CN(CCc1ccccc1)[C@H]2[C@@H]3CCCNC(=N)N [IB-256] | 10 to 30 µM |
| N=C(N)NCCC[C@@H]1[C@H]2CN[C@@]3(C(=O)NCc4ccccc4)[C@@H](C2)CN(Cc2ccc(F)cc2)[C@@H]13 [IB-260] | 10 to 30 µM |
| N=C(N)NCCC[C@@H]1[C@H]2CN[C@@]3(C(=O)NCCc4ccccc4)[C@@H](C2)CN(Cc2ccc(F)cc2)[C@@H]13 [IB-262] | 10 to 30 µM |
| CC(C)CC[C@@H]1[C@H]2CN[C@@]3(C(=O)NCCC(N)=O)[C@@H](C2)CN(Cc2ccccc2)[C@@H]13 [IB-274] | 10 to 30 µM |
| N=C(N)NCCCNC(=O)[C@]12NC[C@H]3C[C@H]1CN(Cc1ccccc1)[C@H]2[C@@H]3Cc1ccccc1 [IB-276] | 10 to 30 µM |
| N=C(N)NCCCNC(=O)[C@]12NC[C@H]3C[C@H]1CN(Cc1ccccc1)[C@H]2[C@@H]3CCc1ccccc1 [IB-279] | 10 to 30 µM |

Same assay, conditions: read-out: IC50

| SMILES | IC50 |
| --- | --- |
| CC(C)CNC(=O)[C@]12N=C[C@@H]3C[C@H]1CN(Cc1ccccc1)[C@H]2[C@@H]3CC(C)C (relative stereo) [IIB-4] | 8.9 µM |
| Cc1ccc(CNC(=O)[C@@]23C[C@@H]4CN(CC(C)C)[C@@H]([C@@H]4C=N2)[C@H]3Cc2ccccc2)cc1 (relative stereo) [IIF-16] | 28.7 µM |
